This is an account of results in ChEMBL document CHEMBL3804798, “Design, synthesis and anti-inflammatory effects of novel 9-O-substituted-berberine derivatives” (Medchemcomm, 2016).

The source made the active and inactive calls. The calls are words filed in the database; no cut-off is given here.

Data set [1] is described as follows: Cytotoxicity against mouse RAW264.7 cells assessed as cell viability at 5 uM after 48 hrs by MTT assay relative to control. The settings on record: read-out: Activity. Type of data set: cell-based. On the technique in general: Formazan colour is commonly taken as a measure of viable cells.
Data set [2] is described as follows: Cytotoxicity against mouse RAW264.7 cells assessed as cell viability at 10 uM after 48 hrs by MTT assay relative to control. Type of data set: cell-based. The following applies: read-out: Activity.
For data set [3], the species on record is Danio rerio. Put plainly: Antiinflammatory activity in cut-tail neutrophil/macrophage double transgenic zebra fish larvae assessed as cut-tail-induced migration of primitive macrophages at 10 uM after 3 to 6 hrs by fluorescence microscopic analysis relative to control. Type of data set: functional, organism-based.
Data set [4] is filed under the species Danio rerio. Put plainly: Antiinflammatory activity in cut-tail neutrophil/macrophage double transgenic zebra fish larvae assessed as cut-tail-induced reduction in neutrophil level in wound site at 10 uM after 3 to 9 hrs by fluorescence microscopic analysis relative to control. Type of data set: functional, organism-based.
Data set [5] concerns RAW264.7. Put plainly: Antiinflammatory activity against mouse LPS-induced RAW264.7 cells assessed as inhibition of TNFalpha production at 5 uM after 24 hrs by cytokine enzyme-linked immunosorbent assay relative to control. The format is functional. The settings on record: RAW264.7, 24 h.
The subject of data set [6] is RAW264.7. Put plainly: Antiinflammatory activity against mouse RAW264.7 cells assessed as inhibition of LPS-induced NO release at 5 uM after 24 hrs by Griess assay relative to control. The following applies: RAW264.7, 24 h. The format is functional. In general terms: Griess reagent forms a coloured azo dye with nitrite.
In data set [7] the test system is RAW264.7. Put plainly: Antiinflammatory activity against mouse LPS-induced RAW264.7 cells assessed as inhibition of IL-6 production at 5 uM after 24 hrs by cytokine enzyme-linked immunosorbent assay relative to control. The format is functional, cell-based.
Data set [8] concerns RAW264.7. The experiment in a line: Inhibition of LPS stimulated iNOS expression in mouse RAW264.7 cells preincubated for 2 hrs followed by LPS stimulation for 6 hrs by Western blot analysis. The format is functional, cell-based.
For data set [9], the target named is T1, NF-kappa-B inhibitor alpha (Mus musculus) (UniProt Q9Z1E3).
T1 sequence (whole entry): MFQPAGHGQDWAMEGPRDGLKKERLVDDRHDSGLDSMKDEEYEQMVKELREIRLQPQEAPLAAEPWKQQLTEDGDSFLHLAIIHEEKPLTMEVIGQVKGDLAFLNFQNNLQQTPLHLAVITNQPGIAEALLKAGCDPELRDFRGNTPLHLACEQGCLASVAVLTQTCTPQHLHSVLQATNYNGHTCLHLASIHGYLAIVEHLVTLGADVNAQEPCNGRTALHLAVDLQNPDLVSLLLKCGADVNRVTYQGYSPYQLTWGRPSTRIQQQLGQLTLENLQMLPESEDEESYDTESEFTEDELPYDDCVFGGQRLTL
The experiment in a line: Inhibition of LPS stimulated IkappaBaplha phosphorylation in mouse RAW264.7 cells preincubated for 2 hrs followed by LPS stimulation for 6 hrs by Western blot analysis. Type of data set: cell-based. On the technique in general: A western blot detects proteins with antibodies after separation by electrophoresis.

The test system of data set [10] is RAW264.7. Put plainly: Antiinflammatory activity against mouse RAW264.7 cells assessed as inhibition of LPS-induced NO release after 24 hrs by Griess assay relative to control. The format is functional, cell-based.
The species named for data set [11] is Danio rerio. Put plainly: Antiinflammatory activity in cut-tail neutrophil/macrophage double transgenic zebra fish larvae assessed as cut-tail-induced reduction in migration of primitive macrophages at 10 uM after 9 hrs by fluorescence microscopic analysis relative to control. The format is functional, organism-based.

Take `C=CCN(CC=C)C(=O)Oc1c(OC)ccc2cc3[n+](cc12)CCc1cc2c(cc1-3)OCO2`: in [1], the viability at 48 h, 5 µM stood at 100%. The viability at 48 h, 10 µM in [2] is 92.2%.
Consider `COc1ccc2cc3[n+](cc2c1OC(=O)N1CCC(N2CCCCC2)CC1)CCc1cc2c(cc1-3)OCO2`, for which the viability at 48 h, 5 µM in data set [1] is 98.1%. In addition, in data set [2], the viability at 48 h, 10 µM came out at 100%.
Take `COc1ccc2cc3[n+](cc2c1OCCCN1CCN(c2ccncc2)CC1)CCc1cc2c(cc1-3)OCO2`: the outcome in the data set filed under Danio rerio [3] was inactive. The outcome in the data set listed under Danio rerio [4] and in the data set listed under Danio rerio [11] was Active. Further, the viability at 48 h, 5 µM in data set [1] was determined as 103%. For the same compound, the inhibition at 5 µM in the data set with RAW264.7 [5] is 90%; in the data set with RAW264.7 [6], 30.2%. In addition, the inhibition entry in the data set with RAW264.7 [7] is “Active”. The inhibition entry (in the data set with RAW264.7 [8]; in data set [9]; in the data set with RAW264.7 [10]) was “Dose-dependent effect” each time. Also, the viability at 48 h, 10 µM in data set [2] was 100%.
Consider `COc1ccc2cc3[n+](cc2c1OC(=O)N1CCN(c2ccccn2)CC1)CCc1cc2c(cc1-3)OCO2`, for which the viability at 48 h, 5 µM in data set [1] was found to be 103%. For the same compound, the inhibition at 5 µM with RAW264.7 [6] came to 12.9%. In [2], the viability at 48 h, 10 µM was found to be 109%.
`COc1ccc2cc3[n+](cc2c1OC(=O)N1CCN(C2CCN(C)CC2)CC1)CCc1cc2c(cc1-3)OCO2`: the viability at 48 h, 5 µM in data set [1] was 107%. In addition, the viability at 48 h, 10 µM in data set [2] was 102%.
For `CCOC(=O)C1CCN(CCCOc2c(OC)ccc3cc4[n+](cc23)CCc2cc3c(cc2-4)OCO3)CC1`, the viability at 48 h, 5 µM in data set [1] came to 98.5%. Also, the viability at 48 h, 10 µM in [2] was found to be 99.5%.
In the case of `COc1ccc2cc3[n+](cc2c1OC(=O)N1CCN(c2ncccn2)CC1)CCc1cc2c(cc1-3)OCO2`, the viability at 48 h, 5 µM in data set [1] amounted to 102%. In addition, the viability at 48 h, 10 µM in data set [2] was 97.6%.
With `COc1ccc2cc3[n+](cc2c1OC)CCc1cc2c(cc1-3)OCO2` [BERBERINE CHLORIDE], in [1], the viability at 48 h, 5 µM turned out to be 99.4%. In addition, in the data set with RAW264.7 [6], the inhibition at 5 µM was 21.1%. Also, the viability at 48 h, 10 µM in [2] amounted to 97.2%.
As for `COc1ccc2cc3[n+](cc2c1OC(=O)N(C)C1CCCCC1)CCc1cc2c(cc1-3)OCO2`, the result in the data set listed under Danio rerio [3] was inactive. Moreover, the outcome in the data set filed under Danio rerio [4] and in the data set listed under Danio rerio [11] was Active. Also, in data set [1], the viability at 48 h, 5 µM came out at 99.3%. Also, the values for the inhibition at 5 µM with RAW264.7 [5] and in the data set with RAW264.7 [6] were 70% and 70.3%, respectively. The inhibition entry with RAW264.7 [7] was “Active”. Besides, the inhibition result (in the data set on RAW264.7 [8]; in data set [9]; in the data set on RAW264.7 [10]) was “Dose-dependent effect” throughout. In addition, the viability at 48 h, 10 µM in data set [2] was 83.2%.
`CCOC(=O)N1CCN(CCCOc2c(OC)ccc3cc4[n+](cc23)CCc2cc3c(cc2-4)OCO3)CC1`: in data set [1], the viability at 48 h, 5 µM came out at 103%. In [2], the viability at 48 h, 10 µM was 99.1%.
Consider `COc1ccc2c(c1)c(CC(=O)O)c(C)n2C(=O)c1ccc(Cl)cc1` [INDOMETHACIN], for which the viability at 48 h, 5 µM in data set [1] stood at 99.8%. Further, in the data set on RAW264.7 [6], the inhibition at 5 µM was 20.8%. The viability at 48 h, 10 µM in data set [2] came out at 99.6%.
Turning to `COc1ccc2cc3[n+](cc2c1OC(=O)N1CCC(Cc2ccccc2)CC1)CCc1cc2c(cc1-3)OCO2`, the viability at 48 h, 5 µM in data set [1] was determined as 97.6%. For the same compound, the viability at 48 h, 10 µM in data set [2] stood at 87.9%.
As for `COc1ccc2cc3[n+](cc2c1OC(=O)N1CCSCC1)CCc1cc2c(cc1-3)OCO2`, in [1], the viability at 48 h, 5 µM stood at 96%. Further, the viability at 48 h, 10 µM in data set [2] amounted to 109%.
For `CCOC(=O)N1CCN(C(=O)Oc2c(OC)ccc3cc4[n+](cc23)CCc2cc3c(cc2-4)OCO3)CC1`, in data set [1], the viability at 48 h, 5 µM came to 97.9%. In the data set on RAW264.7 [6], the inhibition at 5 µM worked out at 9.7%. Moreover, the viability at 48 h, 10 µM in data set [2] came out at 99.6%.
Consider `COc1ccc2cc3[n+](cc2c1OC(=O)N1CCC(N2CCN(C)CC2)CC1)CCc1cc2c(cc1-3)OCO2`, for which, in [1], the viability at 48 h, 5 µM was 101%. Also, the viability at 48 h, 10 µM in data set [2] is 104%.
`CCCN(CCC)C(=O)Oc1c(OC)ccc2cc3[n+](cc12)CCc1cc2c(cc1-3)OCO2`: in [1], the viability at 48 h, 5 µM came to 101%. Besides, the viability at 48 h, 10 µM in data set [2] was 93.9%.
For `COc1ccc2cc3[n+](cc2c1OC(=O)N1CCOCC1)CCc1cc2c(cc1-3)OCO2`, the viability at 48 h, 5 µM in data set [1] was found to be 105%. Moreover, the viability at 48 h, 10 µM in data set [2] is 96%.

The term inhibition denotes the relative decrease from the control value, in per cent.
